Data from article PMC6277767, “Broad and Region-Specific Impacts of the Synthetic Cannabinoid CP 55,940 in Adolescent and Adult Female Mouse Brains” (Frontiers in Molecular Neuroscience, 2018).

Tested on: CD1 female mouse brain lipidome
Experiment: Brain-region lipid levels (HPLC/MS/MS lipidomics) 2 h after single i.p. 3 mg/kg CP 55,940 vs vehicle
Assay type: in vivo
Parameters: N-arachidonoyl phenylalanine level, Mean / N-stearoyl tryptophan level, Mean / N-stearoyl proline level, Mean / N-stearoyl leucine level, Mean / N-stearoyl phenylalanine level, Mean / N-stearoyl serine level, Mean / N-stearoyl methionine level, Mean: unit: moles per gram
Experimental: The Bloomington Institutional Animal Care and Use Committee of Indiana University reviewed and approved the animal procedures. Female mice from the CD1 strain were utilized to match our study examining THC’s effects on the brain lipidome ([Leishman et al., 2018]). Mice were given a single i.p. injection of either 3 mg/kg CP or 1:1:18 cremophor:ethanol:saline vehicle (please refer to the section “3 mg/kg CP Is Relevant for Synthetic Cannabinoid Abuse and Has Stronger Effects on the Female Mouse Brain Lipidome During Adolescence” for a justification of dose and use of female mice). Three different age groups were given injections: PND 35 and PND 50 adolescents, and adult mice (PND 113). At least eight mice in each age group received CP and at least eight received vehicle. Matching the THC study time course ([Leishman et al., 2018]), mice were sacrificed via rapid decapitation 2 h after injection. Brains were immediately removed and flash-frozen in liquid nitrogen, and then stored at -80°C until dissections were performed. Brains were dissected on an ice-cold dissection plate into the following regions: STR, HIPP, CER, THAL, CTX, HYP, MID, and STEM. These abbreviations for these brain areas will be used exclusively when discussing the results generated by these specific dissections. Each dissected area was immediately placed in liquid nitrogen and then stored at -80°C until used for lipid extraction.
Tissue extracts were performed as previously described ([Bradshaw et al., 2006]; [Stuart et al., 2013]; [Raboune et al., 2014]; [Leishman et al., 2016a],[b], [2017], [2018]). First, samples were shock frozen in liquid nitrogen, weighed, and transferred to a centrifuge tube. The mass of the largest sample was multiplied by 50 to determine how many milliliters of HPLC-grade methanol (Fisher, Fair Lawn, NJ, United States) to add. Then, samples were spiked with 500 pmol deuterium-labeled NAGly (d8NAGly; Cayman Chemical, Ann Arbor, MI, United States). Samples were placed on ice in darkness for 2 h then individually homogenized and centrifuged at 19,000 × g for 20 min at 20°C. Supernatants were diluted with HPLC water (purified in house) to make a solution of 75% water, 25% supernatant. Lipids were partially purified on C18 solid phase extraction columns (Agilent, Palo Alto, CA, United States). A series of four elutions with 1.5 mL of 60%, 75%, 85%, and 100% methanol were collected ([Stuart et al., 2013]; [Leishman et al., 2016a],[b], [2018]).
As previously described ([Bradshaw et al., 2006]; [Tan et al., 2006]; [Smoum et al., 2010]; [Stuart et al., 2013]; [Tortoriello et al., 2013]; [Raboune et al., 2014]; [Leishman et al., 2016a],[b], [2017], [2018]), samples were analyzed using an Applied Biosystems API 3000 triple quadrupole mass spectrometer with electrospray ionization (Foster City, CA, United States). Using an Agilent XDB-C18 reversed phase analytical column and optimized mobile phase gradients, 20 μL from each elution were chromatographed. Two Shimadzu 10ADvp pumps (Columbia, MD, United States) provided the pressure for gradient elution. Mobile phase A: 20% methanol, 80% water (v/v) and 1 mM ammonium acetate (Sigma, St. Louis, MO, United States). Mobile phase B: 100% methanol, 1 mM ammonium acetate. Every method run began with 0% mobile phase B, reached 100% mobile phase B flowing at 0.2 mL/min, and gradually returned to 0% mobile phase B.
This screening library will be referred to as the lipidome when discussing data from this study. HPLC/MS/MS data were analyzed using Analyst software (Applied Biosystems) ([Bradshaw et al., 2006]; [Tan et al., 2006]; [Stuart et al., 2013]; [Tortoriello et al., 2013]; [Raboune et al., 2014]; [Leishman et al., 2016a],[b], [2017], [2018]). Chromatograms (Supplementary Figure 3) were generated by determining the retention time of analytes from the analytical column with a [M-1] or [M+1] parent peak and a fragmentation peak corresponding to the programmed values. […]

[1] = hypothalamus, PND 35 adolescent female mice, 3 mg/kg
[2] = midbrain, PND 50, 3mg/kg CP 55,940
[3] = midbrain, PND 50, 3mg/kg CP 55,940, ANOVA p .000
[4] = midbrain, PND 50, 3mg/kg CP 55,940, ANOVA p .001
[5] = midbrain, PND 50, 3mg/kg CP 55,940, ANOVA p .003
[6] = midbrain, PND 50 female mice, 3mg/kg CP 55,940

CCCCCCC(C)(C)c1ccc([C@@H]2C[C@H](O)CC[C@H]2CCCO)c(O)c1 [CP 55,940]
N-stearoyl leucine level, Mean [1]: 1.34E-12
N-stearoyl phenylalanine level, Mean [1]: 1.92E-12
N-stearoyl serine level, Mean [1]: 2.17E-11
N-stearoyl tryptophan level, Mean [1]: 7.7E-12
Oleic acid level, Mean [1]: 7.46E-10
PGE2 level, Mean [1]: 2.42E-10
PhosphoLEA level, Mean [1]: 6.47E-11
2-linoleoyl glycerol Direction (relative to Veh) [2]: ↓
2-oleoyl glycerol, Direction (relative to Veh) [2]: ↓
6-ketoPGF1α Direction (relative to Veh) [2]: ↓
Arachidonic acid, Direction (relative to Veh) [2]: ↓
Linoleic acid, Direction (relative to Veh) [2]: ↓
N-arachidonoyl GABA Direction (relative to Veh) [2]: ↓
N-arachidonoyl alanine, Direction (relative to Veh) [2]: ↓
N-arachidonoyl ethanolamine, Direction (relative to Veh) [2]: ↓
N-arachidonoyl glycine Direction (relative to Veh) [2]: ↓
N-arachidonoyl methionine, Direction (relative to Veh) [2]: ↓
N-arachidonoyl phenylalanine, Direction (relative to Veh) [2]: ↓
N-arachidonoyl tyrosine, Direction (relative to Veh) [2]: ↓
N-docosahexaenoyl GABA Direction (relative to Veh) [2]: ↓
N-docosahexaenoyl ethanolamine, Direction (relative to Veh) [2]: ↓
N-docosahexaenoyl leucine Direction (relative to Veh) [2]: ↑
N-linoleoyl ethanolamine, Direction (relative to Veh) [2]: ↓
N-oleoyl ethanolamine, Direction (relative to Veh) [2]: ↓
N-oleoyl methionine, Direction (relative to Veh) [2]: ↓
N-palmitoyl alanine, Direction (relative to Veh) [2]: ↓
N-palmitoyl ethanolamine, Direction (relative to Veh) [2]: ↓
N-palmitoyl leucine, Direction (relative to Veh) [2]: ↑
N-palmitoyl serine, Direction (relative to Veh) [2]: ↓
N-stearoyl methionine, Direction (relative to Veh) [2]: ↓
N-stearoyl phenylalanine, Direction (relative to Veh) [2]: ↓
PGE2 Direction (relative to Veh) [2]: ↓
PGF2α Direction (relative to Veh) [2]: ↓
Arachidonic acid, Magnitude (x Veh level) [3]: 0.74 x Veh level
N-arachidonoyl glycine Magnitude (x Veh level) [3]: 0.65 x Veh level
N-arachidonoyl methionine, Magnitude (x Veh level) [3]: 0.64 x Veh level
N-arachidonoyl phenylalanine, Magnitude (x Veh level) [3]: 0.69 x Veh level
N-arachidonoyl tyrosine, Magnitude (x Veh level) [4]: 0.68 x Veh level
PGE2 Magnitude (x Veh level) [4]: 0.75 x Veh level
N-palmitoyl leucine, Magnitude (x Veh level) (midbrain, PND 50, 3mg/kg CP 55,940, ANOVA p .002): 1.33 x Veh level
N-docosahexaenoyl GABA Magnitude (x Veh level) [5]: 0.71 x Veh level
N-linoleoyl ethanolamine, Magnitude (x Veh level) [5]: 0.81 x Veh level
Linoleic acid, Magnitude (x Veh level) (midbrain, PND 50, 3mg/kg CP 55,940, ANOVA p .004): 0.75 x Veh level
PGF2α Magnitude (x Veh level) (midbrain, PND 50, 3mg/kg CP 55,940, ANOVA p .007): 0.82 x Veh level
N-palmitoyl ethanolamine, Magnitude (x Veh level) (midbrain, PND 50, 3mg/kg CP 55,940, ANOVA p .011): 0.86 x Veh level
2-linoleoyl glycerol Magnitude (x Veh level) (midbrain, PND 50, 3mg/kg CP 55,940, ANOVA p .017): 0.82 x Veh level
N-arachidonoyl GABA Magnitude (x Veh level) (midbrain, PND 50, 3mg/kg CP 55,940, ANOVA p .021): 0.73 x Veh level
N-docosahexaenoyl ethanolamine, Magnitude (x Veh level) (midbrain, PND 50, 3mg/kg CP 55,940, ANOVA p .023): 0.81 x Veh level
N-oleoyl methionine, Magnitude (x Veh level) (midbrain, PND 50, 3mg/kg CP 55,940, ANOVA p .026): 0.54 x Veh level
N-arachidonoyl ethanolamine, Magnitude (x Veh level) (midbrain, PND 50, 3mg/kg CP 55,940, ANOVA p .031): 0.83 x Veh level
N-oleoyl ethanolamine, Magnitude (x Veh level) (midbrain, PND 50, 3mg/kg CP 55,940, ANOVA p .037): 0.83 x Veh level
N-stearoyl methionine, Magnitude (x Veh level) (midbrain, PND 50, 3mg/kg CP 55,940, ANOVA p .042): 0.78 x Veh level
N-palmitoyl serine, Magnitude (x Veh level) (midbrain, PND 50, 3mg/kg CP 55,940, ANOVA p .048): 0.84 x Veh level
N-arachidonoyl alanine Magnitude (x Veh level) (midbrain, PND 50, 3mg/kg CP 55,940, ANOVA p .057): 0.62 x Veh level
N-docosahexaenoyl leucine Magnitude (x Veh level) (midbrain, PND 50, 3mg/kg CP 55,940, ANOVA p .063): 1.47 x Veh level
2-oleoyl glycerol, Magnitude (x Veh level) (midbrain, PND 50, 3mg/kg CP 55,940, ANOVA p .073): 0.89 x Veh level
N-stearoyl phenylalanine, Magnitude (x Veh level) (midbrain, PND 50, 3mg/kg CP 55,940, ANOVA p .077): 0.85 x Veh level
N-palmitoyl alanine, Magnitude (x Veh level) (midbrain, PND 50, 3mg/kg CP 55,940, ANOVA p .081): 0.77 x Veh level
6-ketoPGF1α Magnitude (x Veh level) (midbrain, PND 50, 3mg/kg CP 55,940, ANOVA p .089): 0.75 x Veh level
2-arachidonoyl glycerol level, Mean [6]: 3.27E-10
2-linoleoyl glycerol level, Mean [6]: 3.73E-10
2-oleoyl glycerol level, Mean [6]: 4.95E-09
2-palmitoyl glycerol level, Mean [6]: 3.34E-09
6-ketoPGF1α level, Mean [6]: 1.22E-11
11-OH-THC level, Mean [6]: BDL
11-nor-9-carboxyTHC level, Mean [6]: BDL
Arachidonic acid level, Mean [6]: 3.1E-10
Cannabidiol level, Mean [6]: BDL
Linoleic acid level, Mean [6]: 2.67E-10
N- stearoyl valine level, Mean [6]: 9.43E-14
N-arachidonoyl GABA level, Mean [6]: 1.55E-11
N-arachidonoyl alanine level, Mean [6]: 9.08E-14
N-arachidonoyl dopamine level, Mean [6]: BDL
N-arachidonoyl ethanolamine level, Mean [6]: 3.81E-11
N-arachidonoyl glycine level, Mean [6]: 4.39E-12
N-arachidonoyl methionine level, Mean [6]: 1.8E-13
N-arachidonoyl phenylalanine level, Mean [6]: 5.45E-13
N-arachidonoyl proline level, Mean [6]: BDL
N-arachidonoyl serine level, Mean [6]: 7.6E-12
N-arachidonoyl taurine level, Mean [6]: 1.38E-11
N-arachidonoyl tryptophan level, Mean [6]: BDL
N-arachidonoyl tyrosine level, Mean [6]: 3.91E-13
N-docosahexaenoyl GABA level, Mean [6]: 1.45E-12
N-docosahexaenoyl alanine level, Mean [6]: PISSR
N-docosahexaenoyl ethanolamine level, Mean [6]: 5.23E-11
N-docosahexaenoyl glycine level, Mean [6]: 5.53E-13
N-docosahexaenoyl leucine level, Mean [6]: 1.28E-13
N-docosahexaenoyl methionine level, Mean [6]: BDL
N-docosahexaenoyl phenylalanine level, Mean [6]: 6.24E-13
N-docosahexaenoyl proline level, Mean [6]: BDL
N-docosahexaenoyl serine level, Mean [6]: 1.85E-11
N-docosahexaenoyl tryptophan level, Mean [6]: BDL
N-docosahexaenoyl tyrosine level, Mean [6]: 5.71E-13
N-docosahexaenoyl valine level, Mean [6]: PISSR
N-linoleoyl GABA level, Mean [6]: 1.04E-12
N-linoleoyl alanine level, Mean [6]: PISSR
N-linoleoyl ethanolamine level, Mean [6]: 5.21E-11
N-linoleoyl glycine level, Mean [6]: 2.23E-13
N-linoleoyl leucine level, Mean [6]: 3.86E-14
N-linoleoyl methionine level, Mean [6]: BDL
N-linoleoyl phenylalanine level, Mean [6]: 1.31E-13
N-linoleoyl proline level, Mean [6]: BDL
